We go through five compounds from article PMC3430861, “The pharmacological profile of ELIC, a prokaryotic GABA-gated receptor” (Neuropharmacology, 2012).

One assay concerns GLIC. Also noted: method as in Alqazzaz et al., 2011. To be noted: ref Alqazzaz et al., 2011, cited from earlier work; for inhibition of GLIC (yes/no): comparison ELIC vs GLIC.
For assay [1], the target named is T1, ELIC (Dickeya chrysanthemi, UniProt P0C7B7).
T1 sequence (P0C7B7 8-321): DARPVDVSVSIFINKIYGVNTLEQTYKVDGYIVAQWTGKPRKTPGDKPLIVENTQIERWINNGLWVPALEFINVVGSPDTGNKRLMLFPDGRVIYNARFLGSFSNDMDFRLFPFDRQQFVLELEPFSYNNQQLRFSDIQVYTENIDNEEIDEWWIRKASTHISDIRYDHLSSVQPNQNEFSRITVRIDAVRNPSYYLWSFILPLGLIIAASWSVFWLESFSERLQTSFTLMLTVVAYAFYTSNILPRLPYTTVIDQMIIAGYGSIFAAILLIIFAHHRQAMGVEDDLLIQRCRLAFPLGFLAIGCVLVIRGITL
The assay is described as follows: cell-based. Format: cell-based, Erwinia chrysanthemi. As for the experimental part:
Xenopus laevis oocyte-positive females were purchased from NASCO (Fort Atkinson, Wisconsin, USA) and maintained according to standard methods. Harvested stage V–VI Xenopus oocytes were washed in four changes of ND96 (96 mM NaCl, 2 mM KCl, 1 mM MgCl2, 5 mM HEPES, pH 7.5), de-folliculated in 1.5 mg ml^−1 collagenase Type 1A for approximately 2 h, washed again in four changes of ND96 and stored in ND96 containing 2.5 mM sodium pyruvate, […], 0.7 mM theophylline.
(§1) The ELIC sequence (Genbank accession number POC7B7) was purchased from Genscript as a synthetic gene with optimized codon usage for expression in Escherichia coli. […] Stage V and VI oocytes were injected with 20 ng cRNA, and currents recorded 1–3 days post-injection.

Assay [2] has as its target T1, ELIC. The assay is described as follows: Inhibition of cysteamine-induced ELIC responses. Format: cell-based, Erwinia chrysanthemi. The settings on record: data not shown.
Assay [3] deals with T2, ELIC (Dickeya chrysanthemi, UniProt P0C7B7, INS163G).
T2 construct: expressed in transfected cells; host or cells: Xenopus laevis oocytes injected with cRNA
The assay is described as follows: cell-based. The class given is cell-based, Erwinia chrysanthemi. The procedure:
Xenopus laevis oocyte-positive females were purchased from NASCO (Fort Atkinson, Wisconsin, USA) and maintained according to standard methods.
as §1

The test system of assay [4] is RDL, a GABA-activated insect receptor. Also noted: method as in McGonigle and Lummis, 2010. To be noted: ref McGonigle and Lummis, 2010, cited from earlier work.

pEC50, pIC50: −log10 of the molar value. Like-named read-outs stand apart in the source and are kept apart here.

The pIC50 is the negative decadic logarithm of the IC50, by convention in mol/L. In the case of `CC(N)C12CC3CC(CC(C3)C1)C2` (stereo not shown) [Rimantadine], the “inhibition of GLIC (yes/no)” value in the assay on GLIC was “inhibiting both receptors”. For the same compound, the “inhibition of ELIC (yes/no)” value against ELIC [1] was “inhibiting both receptors”. For the same compound, the nH on ELIC [1] worked out at 1.0 ± 0.2. Further, the pIC50 at ELIC [1] (IC50) and on ELIC [1] (pIC50 (Mean ± SEM)) was 4.27 throughout. In addition, the “inhibition of cysteamine-induced responses compared to inhibition of GABA-induced responses” value at ELIC [2] is on record as “no significant differences”.

Consider `C=C(C)[C@@H]1[C@H]2OC(=O)[C@@H]1[C@]1(O)C[C@H]3O[C@]34C(=O)O[C@H]2[C@]14C` [Picrotoxinin], for which the “inhibition of GLIC (yes/no)” value in the assay with GLIC is given as “inhibiting both receptors”. Moreover, the nH on ELIC [1] (Hill coefficient of inhibition curve) was 1.2 ± 0.6. Moreover, the pIC50 against ELIC [1] (IC50, wild type ELIC, at the GABA EC50 (1.6 mM)) is 4.02; against ELIC [1] (pIC50 (Mean ± SEM), wild type ELIC, at the GABA EC50 (1.6 mM)), 4.06. Further, the “inhibition of ELIC (yes/no)” value against ELIC [1] (comparison ELIC vs GLIC) is “inhibiting both receptors”. Also, at ELIC [2], the “inhibition of cysteamine-induced responses compared to inhibition of GABA-induced responses” value is reported as “no significant differences”.

Turning to `O=C(O)CCCO` [γ-hydroxybutyric acid], at ELIC [3], the “concentration required to activate ELIC” value is reported as above 10 mM. The “% of Rmax at 100 mM” value on ELIC [3] (100 mM, Rmax = maximal current relative to 10mM GABA) was 8.2 ± 3% of Rmax at 100 mM. For the same compound, the “effect on RDL” value in assay [4] is given as “no effect”.

As for `O=S1OC[C@@H]2[C@H](CO1)[C@@]1(Cl)C(Cl)=C(Cl)[C@]2(Cl)C1(Cl)Cl` (stereo partly drawn) [α-endosulfan], the pIC50 in the assay with GLIC (GLIC), on ELIC [1] (IC50) and against ELIC [1] (pIC50 (Mean ± SEM)) was 4.77 in each case. This compound also gave a nH at ELIC [1] of 0.7 ± 0.2.

Broadly, the pEC50 is the negative decadic logarithm of the EC50, by convention in mol/L. For `NCCCCC(=O)O` [5-aminovaleric acid], at ELIC [3], the “concentration required to activate ELIC” value is given as above 10 mM. Moreover, in assay [4] (RDL), the pEC50 was 2.96 and the Rmax was 0.85.
